The record followed here is paper PMC9598282 (Antibiotics, 2022).

What all share (assay): microbe, parasite or virus in culture
Assay [1] concerns E. coli ATCC 25922. It is filed as cell-based, Escherichia coli. The settings on record: for MIC: Escherichia coli, ATCC25922, 18 h, read-out: MIC alone. Set-up: key to FIC index antibiotic + GCol / FIC index antibiotic + GPMB: sum of FICs; ≤0.5 synergy, 0.5–4 additivity, >4 antagonism. How it is done: (§1) The adjuvant properties of the guanidinylated polymyxins were evaluated using the checkerboard assay as previously described. The bacterial solution was prepared as described in the antimicrobial susceptibility assay. The antibiotic of interest and the adjuvant were serially diluted two-fold along the x- and y-axis on a 96-well plate, respectively, resulting in varying concentrations of both agents in each well. Equal volumes of bacterial solution were added to the designated wells. The well consisting of bacterial solution served as the positive control, while the wells containing only media served as the negative control. The plate was then incubated at 37 °C for 18 h. After incubation, an Emax Plus microplate reader (Molecular Devices, Union City, CA, USA) was used to measure the OD at a wavelength of 590 nm to confirm the turbidity. The fractional inhibitory concentration (FIC) index was then determined to establish the relationship between the antibiotic and adjuvant. The FIC index corresponds to the sum of the FICs of the antibiotic and adjuvant. The FIC of each agent is calculated by dividing its MIC when it is used in combination by its MIC when used alone. FIC indices ≤0.5, 0.5 < x ≤ 4 and >4 indicate synergy, additivity and antagonism, respectively.

The subject of assay [2] is P. aeruginosa PAO1. Format: cell-based, Pseudomonas aeruginosa. The settings on record: for MIC: Pseudomonas aeruginosa, PAO1, 18 h, read-out: MIC alone. How it is done: as §1
Assay [3] concerns A. baumannii ATCC 17978. Format: cell-based, Acinetobacter baumannii. The settings on record: for MIC: Acinetobacter baumannii, ATCC17978, 18 h, read-out: MIC alone; for MIC / MIC alone: agent alone, one value per checkerboard plate. The method, then: as §1
The mark [4] stands for this setting: agent alone, one value per checkerboard plate.

As to `O=C(N[C@H](CO)[C@H](O)c1ccc([N+](=O)[O-])cc1)C(Cl)Cl` [Chloramphenicol], the “Absolute MIC of antibiotic at 2 μg/mL GCol” value was 0.5 µg/mL in assay [1] and 64 µg/mL in assay [3]. Besides, the results for the “Absolute MIC of antibiotic at 2 μg/mL GPMB” value in assay [1] and in assay [3] were 0.5 µg/mL and 32 µg/mL, respectively. The “FIC index antibiotic + GCol” value in assay [1] worked out at 0.375. Moreover, the entries for the “FIC index antibiotic + GPMB” value in assay [1] and in assay [3] were 0.5 and 0.563, respectively. Also, the MIC stood at 2 µg/mL in assay [1] (setting [4]), 32 µg/mL in assay [2] (setting [4]) and 64 µg/mL in assay [3]. The Fold-potentiation of antibiotic in assay [1] (at 2 μg/mL GCol) was 4; in assay [1] (at 2 μg/mL GPMB), 4; in assay [2] (at 4 μg/mL GCol) it was 8; in assay [2] (at 4 μg/mL GPMB), 16; in assay [3] (at 2 μg/mL GCol) it was 1; in assay [3] (at 2 μg/mL GPMB), 2. Also, the “Absolute MIC of antibiotic at 4 μg/mL GCol” value in assay [2] came to 4 µg/mL. Besides, the “Absolute MIC of antibiotic at 4 μg/mL GPMB” value in assay [2] came to 2 µg/mL.

Turning to `CCC[C@@H]1C[C@@H](C(=O)N[C@@H]([C@H]2O[C@H](SC)[C@H](O)[C@@H](O)[C@H]2O)[C@H](C)Cl)N(C)C1` [Clindamycin], the “Absolute MIC of antibiotic at 2 μg/mL GCol” value in assay [1] turned out to be 4 µg/mL; in assay [3], 512 µg/mL. Further, the “Absolute MIC of antibiotic at 2 μg/mL GPMB” value in assay [1] came out at 8 µg/mL; in assay [3], 64 µg/mL. The “FIC index antibiotic + GCol” value in assay [1] came out at 0.125. For the same molecule, the “FIC index antibiotic + GPMB” value is 0.313 in assay [1], 0.254 in assay [2] and 0.375 in assay [3]. Further, the MIC in assay [1] (setting [4]) turned out to be 64 µg/mL; in assay [2] (setting [4]), 1020 µg/mL; in assay [3], 1020 µg/mL. For the same molecule, the MIC alone in assay [1] (setting [4]) was 128 µg/mL; in assay [2] (setting [4]), 2048 µg/mL. For the same molecule, the Fold-potentiation of antibiotic is reported as 16 in assay [1] (at 2 μg/mL GCol); 16 in assay [1] (at 2 μg/mL GPMB); 128 in assay [2] (at 4 μg/mL GCol); 256 in assay [2] (at 4 μg/mL GPMB); 2 in assay [3] (at 2 μg/mL GCol); 16 in assay [3] (at 2 μg/mL GPMB). Further, the “Absolute MIC of antibiotic at 4 μg/mL GCol” value in assay [2] turned out to be 8 µg/mL. For the same molecule, the “Absolute MIC of antibiotic at 4 μg/mL GPMB” value in assay [2] is 8 µg/mL.

Consider `C[C@H]1c2cccc(O)c2C(=O)C2=C(O)[C@]3(O)C(=O)C(C(N)=O)=C(O)[C@@H](N(C)C)[C@@H]3[C@@H](O)[C@@H]21` [Doxycycline], for which, in assay [2], the “Absolute MIC of antibiotic at 4 μg/mL GCol” value was found to be 1 µg/mL and the “Absolute MIC of antibiotic at 4 μg/mL GPMB” value came to 0.5 µg/mL. For the same molecule, the MIC in assay [2] (setting [4]) was determined as 8 µg/mL. Further, in assay [3], the “Absolute MIC of antibiotic at 2 μg/mL GCol” value came to 0.125 µg/mL, the “Absolute MIC of antibiotic at 2 μg/mL GPMB” value is 0.063 µg/mL, the MIC turned out to be 0.125 µg/mL and the MIC alone amounted to 0.063 µg/mL.

`C[C@H]1COc2c(N3CCN(C)CC3)c(F)cc3c(=O)c(C(=O)O)cn1c23` [Levofloxacin]: the entries for the “Absolute MIC of antibiotic at 2 μg/mL GCol” value in assay [1] and in assay [3] were 0.008 µg/mL and 0.125 µg/mL, respectively. The “Absolute MIC of antibiotic at 2 μg/mL GPMB” value in assay [1] was determined as 0.032 µg/mL; in assay [3] it was 0.063 µg/mL. For the same molecule, in assay [1], the “FIC index antibiotic + GCol” value was 0.531. For the same molecule, the “FIC index antibiotic + GPMB” value is recorded as 0.563 in assay [1], 0.375 in assay [2] and 1 in assay [3]. Also, the Fold-potentiation of antibiotic is reported as 2 in assay [1] (at 2 μg/mL GCol); 2 in assay [1] (at 2 μg/mL GPMB); 8 in assay [2] (at 4 μg/mL GCol); 8 in assay [2] (at 4 μg/mL GPMB); 1 in assay [3] (at 2 μg/mL GCol); 1 in assay [3] (at 2 μg/mL GPMB). Besides, the “Absolute MIC of antibiotic at 4 μg/mL GCol” value in assay [2] stood at 0.0625 µg/mL. In assay [2], the “Absolute MIC of antibiotic at 4 μg/mL GPMB” value turned out to be 0.03125 µg/mL. Also, the MIC in assay [2] (setting [4]) stood at 0.5 µg/mL; in assay [3], 0.125 µg/mL. Besides, the MIC alone in assay [3] amounted to 0.063 µg/mL.

As for `CC(=O)NC[C@H]1CN(c2ccc(N3CCOCC3)c(F)c2)C(=O)O1` [Linezolid], the entries for the “Absolute MIC of antibiotic at 2 μg/mL GCol” value in assay [1] and in assay [3] were 16 µg/mL and 128 µg/mL, respectively. In addition, the results for the “Absolute MIC of antibiotic at 2 μg/mL GPMB” value in assay [1] and in assay [3] were 8 µg/mL and 64 µg/mL, respectively. Besides, in assay [1], the “FIC index antibiotic + GCol” value was 0.25. The figures for the “FIC index antibiotic + GPMB” value in assay [1] and in assay [3] were 0.25 and 0.375, respectively. Besides, the MIC in assay [1] (setting [4]) amounted to 128 µg/mL; in assay [2] (setting [4]), 1020 µg/mL; in assay [3] it was 256 µg/mL. Also, the Fold-potentiation of antibiotic amounted to 8 in assay [1] (at 2 μg/mL GCol); 16 in assay [1] (at 2 μg/mL GPMB); 8 in assay [2] (at 4 μg/mL GCol); 32 in assay [2] (at 4 μg/mL GPMB); 2 in assay [3] (at 2 μg/mL GCol); 4 in assay [3] (at 2 μg/mL GPMB). Also, the “Absolute MIC of antibiotic at 4 μg/mL GCol” value in assay [2] is 128 µg/mL. Also, the “Absolute MIC of antibiotic at 4 μg/mL GPMB” value in assay [2] came to 32 µg/mL.

As to `CN(C)c1ccc(O)c2c1C[C@H]1C[C@H]3[C@H](N(C)C)C(O)=C(C(N)=O)C(=O)[C@@]3(O)C(O)=C1C2=O` [Minocycline], the “Absolute MIC of antibiotic at 2 μg/mL GCol” value is 0.25 µg/mL in assay [1] and 0.125 µg/mL in assay [3]. Further, the figures for the “Absolute MIC of antibiotic at 2 μg/mL GPMB” value in assay [1] and in assay [3] were 0.125 µg/mL and 0.063 µg/mL, respectively. The “FIC index antibiotic + GCol” value in assay [1] is reported as 0.281. Besides, the “FIC index antibiotic + GPMB” value amounted to 0.25 in assay [1] and 0.5 in assay [3]. Also, the MIC in assay [1] (setting [4]) worked out at 1 µg/mL; in assay [2] (setting [4]), 16 µg/mL; in assay [3] it was 0.125 µg/mL. Also, the Fold-potentiation of antibiotic in assay [1] (at 2 μg/mL GCol) is 4; in assay [1] (at 2 μg/mL GPMB), 8; in assay [2] (at 4 μg/mL GCol), 32; in assay [2] (at 4 μg/mL GPMB), 32; in assay [3] (at 2 μg/mL GCol), 1; in assay [3] (at 2 μg/mL GPMB), 4. Further, the “Absolute MIC of antibiotic at 4 μg/mL GCol” value in assay [2] worked out at 0.5 µg/mL. Besides, the “Absolute MIC of antibiotic at 4 μg/mL GPMB” value in assay [2] turned out to be 0.5 µg/mL. Also, the MIC alone in assay [3] was 0.25 µg/mL.

Take `COc1c(N2C[C@@H]3CCCN[C@@H]3C2)c(F)cc2c(=O)c(C(=O)O)cn(C3CC3)c12` [Moxifloxacin]: the “Absolute MIC of antibiotic at 2 μg/mL GCol” value amounted to 0.008 µg/mL in assay [1] and 0.063 µg/mL in assay [3]. The results for the “Absolute MIC of antibiotic at 2 μg/mL GPMB” value in assay [1] and in assay [3] were 0.004 µg/mL and 0.063 µg/mL, respectively. Further, the values for the MIC in assay [1] (setting [4]), in assay [2] (setting [4]) and in assay [3] were 0.016 µg/mL, 1 µg/mL and 0.063 µg/mL, respectively.
